Experimental findings from patent US20240327356A1, “PYRIMIDINE BASED RAS MODULATORS AND USES THEREOF” (QUANTA THERAPEUTICS, INC., priority 2021, published 2024) are described below.

The EC50 is the midpoint of the concentration-response curve. A high value points to weaker potency. The IC50 is the concentration that gives 50% inhibition.

Molecules are shown by their SMILES.

For the first assay, the target named is KRAS^G12D-FMe.RAF1^RBDCRD complex (Homo sapiens, UniProt P01116, G12D). As to the kind of experiment: SHG assay: binding to bilayer-tethered KRAS G12D/RAF1 complex. The conditions noted are these: GppNHp-loaded complex on PS bilayer; compound 0.027-40 μM, monitored over 60 min. Here is the method: Compounds suspected to carry intrinsic SHG activity were tested in the presence of an unlabeled KRAS^G12D-FMe.RAF1^RBDCRD complex to monitor binding. PS bilayer was prepared from PS-enriched small unilamellar vesicles (SUVs) purchased from Biodesy, Inc. The concentrated SUVs were diluted in TBS buffer containing 5 mM CaCl2 and incubated on a glass-bottom 384-well Biodesy Delta™ assay plate to allow bilayer formation. Equimolar amounts of GppNHp-loaded KRAS^G12D-FMe and RAF1^RBDCRD were mixed and incubated together on PS bilayer overnight at 4° C. The following day, untethered protein was removed by washing with assay buffer (20 mM Hepes, pH 7.4, […], 1 mM TCEP, 5 μM GppNHp). The SHG signal produced by bilayer-tethered complex was ready using the Biodesy Delta™ platform where each well was pulsed with an 800 nm laser and the resulting second harmonic signal intensity at 400 nm was collected. Compounds were diluted into the same assay buffer and applied to the complex at a final concentration range spanning 0.027 μM-40 μM and the SHG intensity of each well was monitored at 5 minute intervals over a 60 minute time period.
In the case of `NCc1cnc(-c2ccc(Cl)c(C(F)(F)F)c2)nc1N1CC[C@@H](CN)C1` [Compound 1], the EC50 was 1 to 10 µM.
For `NC[C@@H]1CCN(c2nc(-c3ccc(Cl)c(C(F)(F)F)c3)ncc2C2=CCNC2)C1` [Compound 2, [(3S)-1-[2-[4-chloro-3-(trifluoromethyl)phenyl]-5-(2,5-dihydro-1H-pyrrol-3-yl)pyrimidin-4-yl]pyrrolidin-3-yl]methanamine], the EC50 was 0.1 to 1 µM.
Same read-out and setting: the figure for `NCc1cnc(-c2ccc(Cl)c(C(F)(F)F)c2)nc1N1CCC(CN)C1` (centres unmarked) [Compound 4] is 1 to 10 µM.
Still for that read-out and setting: the figure for `CS(=O)(=O)NCc1cnc(-c2ccc(Cl)c(C(F)(F)F)c2)nc1N1CCC(CN)C1` (centres unmarked) [Compound 6, N-[[4-[3-(aminomethyl)pyrrolidin-1-yl]-2-[4-chloro-3-(trifluoromethyl)phenyl]pyrimidin-5-yl]methyl]methanesulfonamide] is 1 to 10 µM.
Same read-out and setting: next, `NCC1CCN(c2nc(-c3ccc(Cl)c(C(F)(F)F)c3)ncc2CNC(=O)C2(F)CC2)C1` (centres unmarked) [Compound 7]: 1 to 10 µM.
`NCC1CCN(c2nc(-c3ccc(Cl)c(C(F)(F)F)c3)ncc2CNC(=O)c2ccccc2)C1` (centres unmarked) [Compound 9] had an EC50 of 1 to 10 µM.
On the same count and under the same terms, the figure for `NCC1CCN(c2nc(-c3ccc(Cl)c(Cl)c3)ncc2C2=CCNC2)C1` (centres unmarked) [Compound 10] is 1 to 10 µM.
`NCC1CCN(c2nc(-c3ccc(Cl)c(C(F)(F)F)c3)ncc2OC2CCOC2)C1` (centres unmarked) [Compound 12] gave an EC50 of 1 to 10 µM.
In turn, `NC[C@@H]1CCN(c2nc(-c3ccc(Cl)c(C(F)(F)F)c3)ncc2C2CC2)C1` [Compound 14] had an EC50 of 1 to 10 µM.
Still for that read-out and setting: next, `CN1CC(Oc2nc(-c3ccc(Cl)c(C(F)(F)F)c3)ncc2CNC(=O)C2(C#N)CC2)C1` [Compound 78]: 10 to 50 µM.
Same read-out and setting: the figure for `CN1CCC(Oc2nc(-c3ccc(Cl)c(C(F)(F)F)c3)ncc2CNC(=O)C2(C#N)CC2)C1` (centres unmarked) [Compound 79] is 10 to 50 µM.
Regarding `Cc1ccc(-c2ncc(CNC(=O)C3CNC3)c(N3CCC(CN)C3)n2)cc1Cl` (centres unmarked) [Compound 85], the EC50 was 1 to 10 µM.
Molecule `Cc1ccc(-c2ncc(CNC(=O)C3CN(C)C3)c(N3CCC(CN)C3)n2)cc1Cl` (centres unmarked) [Compound 86] had an EC50 of 1 to 10 µM.
`Cc1ccc(-c2ncc(CNC(=O)C3(C#N)CC3)c(N3CCC(CN(C)C)C3)n2)cc1Cl` (centres unmarked) [Compound 129]: the EC50 was 1 to 10 µM.
The molecule `Cc1ccc(-c2ncc(CNc3ccccc3)c(N3CCC(CN)C3)n2)cc1Cl` (centres unmarked) [Compound 130] yielded a concentration giving a half-maximal response (EC50) of 1 to 10 µM.
Same read-out and setting: the figure for `Cc1ccc(-c2ncc(OCC(=O)Nc3ccccc3)c(N3CCC(CN)C3)n2)cc1Cl` (centres unmarked) [Compound 131] is 1 to 10 µM; for `Cc1ccc(-c2ncc(CNCC3CC3)c(N3CCC(CN)C3)n2)cc1Cl` (centres unmarked) [Compound 132] it is 1 to 10 µM.
The same measure, in the same setting: the figure for `Cc1ccc(-c2ncc(CNC(=O)C(F)c3ccccc3)c(N3CCC(CN)C3)n2)cc1Cl` (centres unmarked) [Compound 133] is 1 to 10 µM; for `Cc1ccc(-c2ncc(CNC(=O)C(F)(F)c3ccccc3)c(N3CCC(CN)C3)n2)cc1Cl` (centres unmarked) [Compound 134] it is 1 to 10 µM.
Same read-out and setting: next, `Cc1ccc(-c2ncc(CNC(=O)C3Cc4ccccc4O3)c(N3CCC(CN)C3)n2)cc1Cl` (centres unmarked) [Compound 135]: 1 to 10 µM.
On to `N#CC1(C(=O)NCc2cnc(-c3cc(F)c(C(F)(F)F)c(F)c3)nc2N2CCC(CN)C2)CC1` (centres unmarked) [Compound 137], for which the EC50 fell in the range of 1 to 10 µM.
Same read-out and setting: next, `Cc1c(Cl)cc(-c2ncc(CNC(=O)C3(C#N)CC3)c(N3CCC(CN)C3)n2)cc1Cl` (centres unmarked) [Compound 139]: 1 to 10 µM.
The same measure, in the same setting: the figure for `Cc1c(F)cc(-c2ncc(CNC(=O)C3(C#N)CC3)c(N3CCC(CN)C3)n2)cc1[N+](=O)[O-]` (centres unmarked) [Compound 140] is 1 to 10 µM; for `N#CC1(C(=O)NCc2cnc(-c3ccc(Cl)c(OC(F)(F)F)c3)nc2N2CCC(CN)C2)CC1` (centres unmarked) [Compound 141] it is 1 to 10 µM.
On the same count and under the same terms, next, `CN(C)CC1CCN(c2nc(-c3cc(Cl)cc(-c4ccccc4)c3)ncc2CNC(=O)C2(C#N)CC2)C1` (centres unmarked) [Compound 142]: 1 to 10 µM.
`CN(C)CC1CCN(c2nc(-c3cc(Cl)cc(C#Cc4ccccc4)c3)ncc2CNC(=O)C2(C#N)CC2)C1` (centres unmarked) [Compound 143] gave an EC50 of 1 to 10 µM.
On the same count and under the same terms, the figure for `CN(C)CC1CCN(c2nc(-c3cc(Cl)cc(/C=C/c4ccccc4)c3)ncc2CNC(=O)C2(C#N)CC2)C1` (centres unmarked) [Compound 144] is 1 to 10 µM; for `C#CC1(C(=O)NCc2cnc(-c3ccc(Cl)c(C(F)(F)F)c3)nc2N2CCC(CN)C2)CC1` (centres unmarked) [Compound 145] it is 1 to 10 µM; for `C#Cc1cc(-c2ncc(CNC(=O)C3(C#N)CC3)c(N3CCC(CN(C)C)C3)n2)cc(F)c1C` (centres unmarked) [Compound 147, 1-cyano-N-[[4-[3-[(dimethylamino)methyl]pyrrolidin-1-yl]-2-(3-ethynyl-5-fluoro-4-methyl-phenyl)pyrimidin-5-yl]methyl]cyclopropanecarboxamide] it is 10 to 50 µM.
As to `CN(C)CC1CCN(c2nc(-c3cc(Cl)cc(Cc4ccccc4)c3)ncc2CNC(=O)C2(C#N)CC2)C1` (centres unmarked) [Compound 148], the half-maximal effective concentration (EC50) lay within 1 to 10 µM.
With `CN(C)CC1CCN(c2nc(-c3cc(Cl)cc(C(F)c4ccccc4)c3)ncc2CNC(=O)C2(C#N)CC2)C1` (centres unmarked) [Compound 149], the EC50 was 1 to 10 µM.
The molecule `CN(C)CC1CCN(c2nc(-c3ccc(Cc4ccccc4)c(Cl)c3)ncc2CNC(=O)C2(C#N)CC2)C1` (centres unmarked) [Compound 150] showed a concentration giving a half-maximal response (EC50) of 1 to 10 µM.

In a further assay the test system is Phospho-ERK (Thr202/Tyr204) in MiaPaCa-2 cells. As to the kind of experiment: pERK inhibition in MiaPaca-2 cell line (HTRF). Format: cell-based. The conditions noted are these: Homo sapiens, MIA PaCa-2, 1 hour incubation with compound. Here is the method:
MiaPaCa-2 cells (ATCC CRL-1420) were cultured in high glucose DMEM (Gibco 11965092) containing 10% fetal bovine serum (Gibco 1993708) and 1× Penicillin/Streptomycin, at 37° C. in a humid atmosphere of 5% CO2 in the air. Cells were plated in tissue-culture treated 96-well plates at a density of 10,000 cells/well and allowed to attach for 16 hours. The medium was then removed, and diluted compounds were added in a final concentration of 0.5% DMSO. After 1 hour of incubation, cells were lysed by the lysis buffer supplied with the Phospho-ERK (Thr202/Tyr204) cellular HTRF kit (Cisbio 64ERKPEH) and transferred to a 384-well low-volume white plate (PerkinElmer 6008280). The cell lysates were treated with the detection reagents supplied with the HTRF kit for 4 hours at ambient temperature in darkness. Two fluorescence intensities at the wavelengths (665 and 620 nm) were measured by the Envision plate reader (Perkin Elmer), and the data were processed and fitted to a 4-parameter logistic model for IC50 calculation (GraphPad Prism 9).
For `Cc1ccc(-c2ncc(CNC(=O)C3(F)CC3)c(O[C@@H]3CNC[C@@H]3O)n2)cc1Cl` (racemic) [Compound 100], the IC50 lay in the range of 10 to 50 µM.
Still for that read-out and setting: the figure for `NCc1cnc(-c2ccc(Cl)c(C(F)(F)F)c2)nc1N1CC[C@@H](CN)C1` [Compound 1] is 10 to 50 µM; for `NC[C@@H]1CCN(c2nc(-c3ccc(Cl)c(C(F)(F)F)c3)ncc2C2=CCNC2)C1` [Compound 2, [(3S)-1-[2-[4-chloro-3-(trifluoromethyl)phenyl]-5-(2,5-dihydro-1H-pyrrol-3-yl)pyrimidin-4-yl]pyrrolidin-3-yl]methanamine] it is 1 to 10 µM.
Same read-out and setting: next, `NCCOc1cnc(-c2ccc(Cl)c(C(F)(F)F)c2)nc1N1CC[C@@H](CN)C1` [Compound 3, (S)-2-((4-(3-(aminomethyl)pyrrolidin-1-yl)-2-(4-chloro-3-(trifluoromethyl)phenyl)pyrimidin-5-yl)oxy)ethan-1-amine]: 1 to 10 µM; `NCC1CCN(c2nc(-c3ccc(Cl)c(C(F)(F)F)c3)ncc2CNC(=O)C2(F)CC2)C1` (centres unmarked) [Compound 7]: 1 to 10 µM.
For the molecule `NCC1CCN(c2nc(-c3ccc(C(F)(F)F)cc3F)ncc2C2=CCNC2)C1` (centres unmarked) [Compound 8], the IC50 lay within 1 to 10 µM.
The same measure, in the same setting: the figure for `NCC1CCN(c2nc(-c3ccc(Cl)c(C(F)(F)F)c3)ncc2CNC(=O)c2ccccc2)C1` (centres unmarked) [Compound 9] is 10 to 50 µM.
Same read-out and setting: the figure for `NCC1CCN(c2nc(-c3ccc(Cl)c(Cl)c3)ncc2C2=CCNC2)C1` (centres unmarked) [Compound 10] is 1 to 10 µM.
As to `NCC1CCN(c2nc(-c3ccc(Cl)cc3F)ncc2C2=CCNC2)C1` (centres unmarked) [Compound 11], the IC50 was in the range of 1 to 10 µM.
Still for that read-out and setting: next, `NCC1CCN(c2nc(-c3ccc(Cl)c(C(F)(F)F)c3)ncc2OC2CCOC2)C1` (centres unmarked) [Compound 12]: 1 to 10 µM; `NCC1CCN(c2nc(-c3ccc(Cl)c(C(F)(F)F)c3)ncc2OC2CNC2)C1` (centres unmarked) [Compound 13]: 1 to 10 µM; `NC[C@@H]1CCN(c2nc(-c3ccc(Cl)c(C(F)(F)F)c3)ncc2C2CC2)C1` [Compound 14]: 10 to 50 µM.
`NCC1CCN(c2nc(-c3ccc(Cl)c(C(F)(F)F)c3)ncc2OC2CCNC2)C1` (centres unmarked) [Compound 15]: the IC50 lay within 1 to 10 µM.
The same measure, in the same setting: the figure for `NCC1CCN(c2nc(-c3ccc(Cl)c(C(F)(F)F)c3)ncc2OC2COC2)C1` (centres unmarked) [Compound 16] is 1 to 10 µM.
With `CCOC(=O)NCc1cnc(-c2ccc(C(F)(F)F)cc2F)nc1N1CCC(CN)C1` (centres unmarked) [Compound 21, ethyl N-[[4-[3-(aminomethyl)pyrrolidin-1-yl]-2-[2-fluoro-4-(trifluoromethyl)phenyl]pyrimidin-5-yl]methyl]carbamate], the IC50 was 10 to 50 µM.
The same measure, in the same setting: next, `N#Cc1cc(-c2ncc(C3=CCNC3)c(N3CCC(CN)C3)n2)ccc1Cl` (centres unmarked) [Compound 22]: 1 to 10 µM.
The same measure, in the same setting: the figure for `N#CC1(C(=O)NCc2cnc(-c3ccc(Cl)cc3F)nc2N2CCC(CN)C2)CC1` (centres unmarked) [Compound 24] is 10 to 50 µM.
Consider `N#CC1(C(=O)NCc2cnc(-c3ccc4ccccc4c3)nc2N2CCC(CN)C2)CC1` (centres unmarked) [Compound 64], for which the IC50 was in the range of 10 to 50 µM.
The same measure, in the same setting: next, `Cc1ccc(-c2ncc(NS(=O)(=O)C3CC3)c(N3CCC(CN)C3)n2)cc1Cl` (centres unmarked) [Compound 111]: 1 to 10 µM; `Cc1ccc(-c2ncc(NC(=O)c3ccccc3)c(N3CCC(CN)C3)n2)cc1Cl` (centres unmarked) [Compound 114]: 1 to 10 µM.
Same read-out and setting: the figure for `Cc1ccc(-c2ncc(CNC(=O)C3(C#N)CC3)c(N3CCN(C)CC3)n2)cc1Cl` [Compound 115] is 1 to 10 µM.
On the same count and under the same terms, the figure for `N#CC1(C(=O)NCc2cnc(-c3ccc4c(c3)CC4)nc2N2CCC(CN)C2)CC1` (centres unmarked) [Compound 117] is 1 to 10 µM.
Take `Cc1ccc(-c2ncc(OCC(=O)N(C)C)c(N3CCC(CN)C3)n2)cc1Cl` (centres unmarked) [Compound 127]: the IC50 lay in the range of 1 to 10 µM.
On the same count and under the same terms, the figure for `Cc1ccc(-c2ncc(CNC(=O)C3(F)CC3)c(CN3CCN(C)CC3)n2)cc1Cl` [Compound 128, N-[[2-(3-chloro-4-methyl-phenyl)-4-[(4-methylpiperazin-1-yl)methyl]pyrimidin-5-yl]methyl]-1-fluoro-cyclopropanecarboxamide] is 10 to 50 µM.
